Experimental data published in patent US8410112B2, “Compounds useful as inhibitors of ATR kinase” (Vertex Pharmaceuticals Incorporated, priority 2008, dated 2013).

Biological target: T1, full-length ATR (Homo sapiens, UniProt Q13535)
T1 construct: in the presence of 5 nM full-length ATR
Assay: ATR Inhibition Assay (radioactive-phosphate incorporation)
Assay type: biochemical
Conditions: Ki(app); 5 nM full-length ATR, 10 μM ATP, 800 μM target peptide, 25° C.
Protocol: Test compounds were screened for their ability to inhibit ATR kinase using a radioactive-phosphate incorporation assay. Assays were carried out in a mixture of 50 mM
Tris/HCl (pH 7.5), 10 mM MgCl2 and 1 mM DTT. Final substrate concentrations were 10 μM [γ-33P]ATP (3 mCi 33 P ATP/mmol ATP, Perkin Elmer) and 800 μM target peptide ([…]). Assays were carried out at 25° C. in the presence of 5 nM full-length ATR. An assay stock buffer solution was prepared containing all of the reagents listed above, with the exception of ATP and the test compound of interest. […] The plate was pre-incubated for 10 minutes at 25° C. and the reaction initiated by addition of 15 μL [γ-33P]ATP (final concentration 10 μM).
The reaction was stopped after […] by the addition of 30 μL 0.1M phosphoric acid containing 2 mM ATP. A multiscreen phosphocellulose filter 96-well plate (Millipore, Cat no. MAPHN0B50) was pretreated with 100 μL 0.2M phosphoric acid prior to the addition of 45 μL of the stopped assay mixture. The plate was washed with 5×200 μL 0.2M phosphoric acid.
After removing mean background values for all of the data points, Ki(app) data were calculated from non-linear regression analysis of the initial rate data using the Prism software package (GraphPad Prism version 3.0cx for Macintosh, GraphPad Software, San Diego Calif., USA).

T1 sequence (Q13535 whole entry): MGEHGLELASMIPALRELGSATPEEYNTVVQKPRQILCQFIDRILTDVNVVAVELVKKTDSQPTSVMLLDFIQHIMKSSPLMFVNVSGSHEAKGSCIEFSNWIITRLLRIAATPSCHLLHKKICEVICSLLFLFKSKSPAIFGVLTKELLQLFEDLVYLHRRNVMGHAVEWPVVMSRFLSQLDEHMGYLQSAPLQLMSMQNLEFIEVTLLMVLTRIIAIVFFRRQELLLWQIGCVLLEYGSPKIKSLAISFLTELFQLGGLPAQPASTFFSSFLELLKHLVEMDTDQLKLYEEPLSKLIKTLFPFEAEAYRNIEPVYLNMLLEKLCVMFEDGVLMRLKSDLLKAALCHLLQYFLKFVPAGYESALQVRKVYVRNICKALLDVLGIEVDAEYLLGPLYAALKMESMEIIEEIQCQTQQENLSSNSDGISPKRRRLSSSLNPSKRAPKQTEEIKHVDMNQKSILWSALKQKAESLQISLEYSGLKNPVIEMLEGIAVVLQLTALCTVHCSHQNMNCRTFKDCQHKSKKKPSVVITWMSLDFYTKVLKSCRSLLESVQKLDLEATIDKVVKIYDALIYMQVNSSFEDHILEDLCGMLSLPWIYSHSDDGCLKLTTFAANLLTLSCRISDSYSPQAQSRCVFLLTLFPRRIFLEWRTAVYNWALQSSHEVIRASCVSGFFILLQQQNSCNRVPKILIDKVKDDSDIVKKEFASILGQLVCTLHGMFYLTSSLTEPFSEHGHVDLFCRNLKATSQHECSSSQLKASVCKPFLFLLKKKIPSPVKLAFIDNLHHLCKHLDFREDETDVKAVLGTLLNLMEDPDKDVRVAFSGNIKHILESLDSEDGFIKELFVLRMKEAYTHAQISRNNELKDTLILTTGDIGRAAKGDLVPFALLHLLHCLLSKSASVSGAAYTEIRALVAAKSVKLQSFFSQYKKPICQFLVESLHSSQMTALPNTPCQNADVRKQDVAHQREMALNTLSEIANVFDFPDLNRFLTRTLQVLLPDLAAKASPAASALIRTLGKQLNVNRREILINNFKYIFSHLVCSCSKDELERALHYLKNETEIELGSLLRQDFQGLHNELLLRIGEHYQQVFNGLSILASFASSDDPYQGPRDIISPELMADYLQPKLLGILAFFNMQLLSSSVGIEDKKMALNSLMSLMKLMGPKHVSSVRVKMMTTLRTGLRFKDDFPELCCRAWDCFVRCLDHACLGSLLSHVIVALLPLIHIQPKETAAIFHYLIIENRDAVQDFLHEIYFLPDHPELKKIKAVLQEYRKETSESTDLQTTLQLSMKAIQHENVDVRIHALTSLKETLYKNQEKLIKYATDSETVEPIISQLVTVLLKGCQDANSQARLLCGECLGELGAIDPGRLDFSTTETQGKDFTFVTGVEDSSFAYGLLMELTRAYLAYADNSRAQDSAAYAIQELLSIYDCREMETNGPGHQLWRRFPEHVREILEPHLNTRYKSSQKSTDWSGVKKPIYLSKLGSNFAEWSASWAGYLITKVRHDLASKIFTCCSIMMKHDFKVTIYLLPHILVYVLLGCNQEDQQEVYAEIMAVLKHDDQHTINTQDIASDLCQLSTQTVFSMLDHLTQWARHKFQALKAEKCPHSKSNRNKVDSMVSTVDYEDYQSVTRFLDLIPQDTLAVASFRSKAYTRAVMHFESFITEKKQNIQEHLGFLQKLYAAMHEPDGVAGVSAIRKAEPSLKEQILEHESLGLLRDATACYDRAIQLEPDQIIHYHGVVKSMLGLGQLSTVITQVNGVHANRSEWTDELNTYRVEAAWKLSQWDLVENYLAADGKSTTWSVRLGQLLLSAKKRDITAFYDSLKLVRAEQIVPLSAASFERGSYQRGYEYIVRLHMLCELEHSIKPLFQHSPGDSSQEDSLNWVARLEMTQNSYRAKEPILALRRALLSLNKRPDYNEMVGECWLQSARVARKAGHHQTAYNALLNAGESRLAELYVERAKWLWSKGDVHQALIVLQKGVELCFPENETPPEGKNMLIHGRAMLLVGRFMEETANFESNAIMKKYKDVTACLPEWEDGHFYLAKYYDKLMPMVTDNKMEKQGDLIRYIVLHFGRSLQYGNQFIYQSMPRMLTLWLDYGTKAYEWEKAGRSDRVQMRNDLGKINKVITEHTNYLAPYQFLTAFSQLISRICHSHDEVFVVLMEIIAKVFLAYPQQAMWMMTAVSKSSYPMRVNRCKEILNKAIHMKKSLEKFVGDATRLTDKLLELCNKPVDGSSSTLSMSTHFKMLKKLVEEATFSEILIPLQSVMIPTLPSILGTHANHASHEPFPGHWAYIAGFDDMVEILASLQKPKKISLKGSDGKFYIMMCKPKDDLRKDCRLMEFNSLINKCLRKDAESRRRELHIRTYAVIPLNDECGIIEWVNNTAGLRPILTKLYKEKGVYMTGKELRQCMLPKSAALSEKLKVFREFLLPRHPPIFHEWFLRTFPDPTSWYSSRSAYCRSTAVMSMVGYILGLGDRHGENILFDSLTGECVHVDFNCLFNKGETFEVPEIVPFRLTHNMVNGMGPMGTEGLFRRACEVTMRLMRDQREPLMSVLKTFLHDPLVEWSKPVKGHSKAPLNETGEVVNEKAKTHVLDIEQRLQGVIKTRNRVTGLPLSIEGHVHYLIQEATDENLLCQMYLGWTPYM

Question: CCS(=O)(=O)N1CCN(c2cnc(N)c(-c3cn4ccsc4n3)n2)CC1 [Compound I-62, 5-(4-(ethylsulfonyl)piperazin-1-yl)-3-(imidazo[2,1-b]thiazol-6-yl)pyrazin-2-amine] was tested. Which Ki did it give?
Answer: The Ki was 1000 to 10000 nM.

Question: With Cc1ccc2nc(-c3nc(N4CCC(C(=O)c5ccccc5)CC4)cnc3N)[nH]c2c1 [Compound I-63, (1-(5-amino-6-(6-methyl-1H-benzo[d]imidazol-2-yl)pyrazin-2-yl)piperidin-4-yl)(phenyl)methanone] as the compound, how does the Ki read?
Answer: The Ki was 100 to 1000 nM.

Question: For Cc1ccc2nc(-c3nc(N4CCN(c5ccccn5)CC4)cnc3N)[nH]c2c1 [Compound I-64, 3-(6-methyl-1H-benzo[d]imidazol-2-yl)-5-(4-(pyridin-2-yl)piperazin-1-yl)pyrazin-2-amine], which Ki is on record?
Answer: Its Ki is 1000 to 10000 nM.

Question: For Cc1ccc2nc(-c3nc(N4CCNC(=O)CC4)cnc3N)[nH]c2c1 [Compound I-65, 1-(5-amino-6-(6-methyl-1H-benzo[d]imidazol-2-yl)pyrazin-2-yl)-1,4-diazepan-5-one], which Ki is on record?
Answer: The Ki was 1000 to 10000 nM.

Question: For Nc1ncc(C2=CCNCC2)nc1-c1nc2ccccc2[nH]1 [Compound I-66, 3-(1H-benzo[d]imidazol-2-yl)-5-(1,2,3,6-tetrahydropyridin-4-yl)pyrazin-2-amine], which Ki is on record?
Answer: The Ki was 100 to 1000 nM.

Question: Which Ki does the source give for CC(C)C(=O)N1CC=C(c2cnc(N)c(-c3nc4cccnc4[nH]3)n2)CC1 [Compound I-67, 1-(4-(5-amino-6-(3H-imidazo[4,5-b]pyridin-2-yl)pyrazin-2-yl)-5,6-dihydropyridin-1(2H)-yl)-2-methylpropan-1-one] here?
Answer: The Ki was < 100 nM.

Question: For CC(C)C(=O)N1CCN(c2cnc(N)c(C(=O)Nc3ccccn3)n2)CC1 [Compound I-68, 3-amino-6-(4-(2-methylpropanoyl)piperazin-1-yl)-N-(pyridin-2-yl)pyrazine-2-carboxamide], which Ki is on record?
Answer: The Ki was 100 to 1000 nM.

Question: Which Ki does the source give for CCS(=O)(=O)N1CCN(c2cnc(N)c(-c3nnc(Nc4ccccc4)o3)n2)CC1 [Compound I-69, 5-(3-amino-6-(4-(ethylsulfonyl)piperazin-1-yl)pyrazin-2-yl)-N-phenyl-1,3,4-oxadiazol-2-amine] here?
Answer: The Ki was 100 to 1000 nM.

Question: With CNC(=O)[C@H]1CCN(c2cnc(N)c(-c3nc4ccc(C)cc4[nH]3)n2)C1 [Compound I-70, (S)-1-(5-amino-6-(6-methyl-1H-benzo[d]imidazol-2-yl)pyrazin-2-yl)-N-methylpyrrolidine-3-carboxamide] as the compound, how does the Ki read?
Answer: Its Ki is 1000 to 10000 nM.

Question: Which Ki does the source give for CCS(=O)(=O)N1CC=C(c2cnc(N)c(-c3nc4ccccc4[nH]3)n2)CC1 [Compound I-71, 3-(1H-benzo[d]imidazol-2-yl)-5-(1-(ethylsulfonyl)-1,2,3,6-tetrahydropyridin-4-yl)pyrazin-2-amine] here?
Answer: Its Ki is < 100 nM.

Question: Which Ki does the source give for CCS(=O)(=O)N1CCN(c2cnc(N)c(-c3nnc(C4CCCCC4)o3)n2)CC1 [Compound I-72, 3-(5-cyclohexyl-1,3,4-oxadiazol-2-yl)-5-(4-(ethylsulfonyl)piperazin-1-yl)pyrazin-2-amine] here?
Answer: The Ki was 1000 to 10000 nM.

Question: With CCS(=O)(=O)N1CCN(c2cnc(N)c(C(=O)/C=C/c3ccccc3)n2)CC1 [Compound I-73, (E)-1-(3-amino-6-(4-(ethylsulfonyl)piperazin-1-yl)pyrazin-2-yl)-3-phenylprop-2-en-1-one] as the compound, how does the Ki read?
Answer: Its Ki is 1000 to 10000 nM.

Question: For CCS(=O)(=O)N1CCN(c2cnc(N)c(-c3cc(-c4ccccc4)ncn3)n2)CC1 [Compound I-74, 5-(4-(ethylsulfonyl)piperazin-1-yl)-3-(6-phenylpyrimidin-4-yl)pyrazin-2-amine], which Ki is on record?
Answer: Its Ki is 100 to 1000 nM.

Question: How did the Ki turn out when Nc1ncc(N2CCCC2=O)nc1-c1nc2ccccc2[nH]1 [Compound I-75, 1-(5-amino-6-(1H-benzo[d]imidazol-2-yl)pyrazin-2-yl)pyrrolidin-2-one] was run?
Answer: Its Ki is 1000 to 10000 nM.

Question: Which Ki does the source give for N#CCN1CC=C(c2cnc(N)c(-c3nc4ccccc4[nH]3)n2)CC1 [Compound I-76, 2-(4-(5-amino-6-(1H-benzo[d]imidazol-2-yl)pyrazin-2-yl)-5,6-dihydropyridin-1(2H)-yl)ethanenitrile] here?
Answer: The Ki was 100 to 1000 nM.

Question: Which Ki does the source give for CNC(=O)[C@@H]1CCN(c2cnc(N)c(-c3nc4ccc(C)cc4[nH]3)n2)C1 [Compound I-77, (R)-1-(5-amino-6-(6-methyl-1H-benzo[d]imidazol-2-yl)pyrazin-2-yl)-N-methylpyrrolidine-3-carboxamide] here?
Answer: The Ki was 1000 to 10000 nM.

Question: How did the Ki turn out when CN1CCC(C(=O)N2CC=C(c3cnc(N)c(-c4nc5ccccc5[nH]4)n3)CC2)CC1 [Compound I-78, (4-(5-amino-6-(1H-benzo[d]imidazol-2-yl)pyrazin-2-yl)-5,6-dihydropyridin-1(2H)-yl)(1-methylpiperidin-4-yl)methanone] was run?
Answer: Its Ki is 100 to 1000 nM.

Question: Nc1ncc(C2=CCN(S(=O)(=O)c3cccs3)CC2)nc1-c1nc2ccccc2[nH]1 [Compound I-79, 3-(1H-benzo[d]imidazol-2-yl)-5-(1-(thiophen-2-ylsulfonyl)-1,2,3,6-tetrahydropyridin-4-yl)pyrazin-2-amine] was tested. Which Ki did it give?
Answer: The Ki was < 100 nM.

Question: For Nc1ncc(N2CCN(S(=O)(=O)c3ccsc3)CC2)nc1-c1nc2ccccc2[nH]1 [Compound I-80, 3-(1H-benzo[d]imidazol-2-yl)-5-(4-(thiophen-3-ylsulfonyl)piperazin-1-yl)pyrazin-2-amine], which Ki is on record?
Answer: Its Ki is 100 to 1000 nM.

Question: How did the Ki turn out when CN(C)S(=O)(=O)N1CCN(c2cnc(N)c(C(=O)Nc3ccccn3)n2)CC1 [Compound I-81, 3-amino-6-(4-(N,N-dimethylsulfamoyl)piperazin-1-yl)-N-(pyridin-2-yl)pyrazine-2-carboxamide] was run?
Answer: The Ki was 1000 to 10000 nM.

Question: Which Ki does the source give for Nc1ncc(C2=CCN(C(=O)c3ccccc3)CC2)nc1-c1nc2ccccc2[nH]1 [Compound I-82, (4-(5-amino-6-(1H-benzo[d]imidazol-2-yl)pyrazin-2-yl)-5,6-dihydropyridin-1(2H)-yl)(phenyl)methanone] here?
Answer: Its Ki is < 100 nM.

Question: With CN(C)S(=O)(=O)N1CCN(c2cnc(N)c(-c3nnc(-c4ccccc4)o3)n2)CC1 [Compound I-83, 4-(5-amino-6-(5-phenyl-1,3,4-oxadiazol-2-yl)pyrazin-2-yl)-N,N-dimethylpiperazine-1-sulfonamide] as the compound, how does the Ki read?
Answer: The Ki was 100 to 1000 nM.

Question: Which Ki does the source give for CN(C)S(=O)(=O)N1CC=C(c2cnc(N)c(-c3nnc(-c4ccccc4)o3)n2)CC1 [Compound I-84, 4-(5-amino-6-(5-phenyl-1,3,4-oxadiazol-2-yl)pyrazin-2-yl)-N,N-dimethyl-5,6-dihydropyridine-1(2H)-sulfonamide] here?
Answer: The Ki was < 100 nM.

Question: With CN(C)S(=O)(=O)N[C@H]1CCN(c2cnc(N)c(-c3nc4ccccc4[nH]3)n2)C1 [Compound I-85, (S)-N-(1-(5-amino-6-(1H-benzo[d]imidazol-2-yl)pyrazin-2-yl)pyrrolidin-3-yl)propane-2-N,N-dimethylsulfamide] as the compound, how does the Ki read?
Answer: Its Ki is 1000 to 10000 nM.

Question: For CS(=O)(=O)N1CCN(c2cnc(N)c(-c3nc4ccccc4[nH]3)n2)CC1 [Compound I-86, 3-(1H-benzo[d]imidazol-2-yl)-5-(4-(methylsulfonyl)piperazin-1-yl)pyrazin-2-amine], which Ki is on record?
Answer: The Ki was 100 to 1000 nM.

Question: Which Ki does the source give for Cn1cnc(S(=O)(=O)N2CCN(c3cnc(N)c(-c4nnc(-c5ccccc5)o4)n3)CC2)c1 [Compound I-87, 5-(4-(1-methyl-1H-imidazol-4-ylsulfonyl)piperazin-1-yl)-3-(5-phenyl-1,3,4-oxadiazol-2-yl)pyrazin-2-amine] here?
Answer: Its Ki is 100 to 1000 nM.

Question: How did the Ki turn out when CN(C)S(=O)(=O)N1CCN(c2cnc(N)c(-c3nc4ccccc4[nH]3)n2)CC1 [Compound I-88, 4-(5-amino-6-(1H-benzo[d]imidazol-2-yl)pyrazin-2-yl)-N,N-dimethylpiperazine-1-sulfonamide] was run?
Answer: The Ki was 100 to 1000 nM.

Question: CN(C)S(=O)(=O)N1CC=C(c2cnc(N)c(-c3nc4ccccc4[nH]3)n2)CC1 [Compound I-89, 4-(5-amino-6-(1H-benzo[d]imidazol-2-yl)pyrazin-2-yl)-N,N-dimethyl-5,6-dihydropyridine-1(2H)-sulfonamide] was tested. Which Ki did it give?
Answer: The Ki was < 100 nM.

Question: Which Ki does the source give for Nc1ncc(N2CCN(S(=O)(=O)c3ccoc3)CC2)nc1-c1nnc(-c2ccccc2)o1 [Compound I-90, 5-(4-(furan-3-ylsulfonyl)piperazin-1-yl)-3-(5-phenyl-1,3,4-oxadiazol-2-yl)pyrazin-2-amine] here?
Answer: The Ki was 100 to 1000 nM.

Question: Which Ki does the source give for Cn1cnc(S(=O)(=O)N2CCN(c3cnc(N)c(-c4nc5ccccc5[nH]4)n3)CC2)c1 [Compound I-91, 3-(1H-benzo[d]imidazol-2-yl)-5-(4-(1-methyl-1H-imidazol-4-ylsulfonyl)piperazin-1-yl)pyrazin-2-amine] here?
Answer: Its Ki is 100 to 1000 nM.

Question: How did the Ki turn out when Nc1ncc(N2CCN(S(=O)(=O)C3CCCC3)CC2)nc1-c1nnc(-c2ccccc2)o1 [Compound I-92, 5-(4-(cyclopentylsulfonyl)piperazin-1-yl)-3-(5-phenyl-1,3,4-oxadiazol-2-yl)pyrazin-2-amine] was run?
Answer: Its Ki is 100 to 1000 nM.

Question: For Nc1ncc(C2=CCN(S(=O)(=O)C3CC3)CC2)nc1-c1nc2ccccc2[nH]1 [Compound I-93, 3-(1H-benzo[d]imidazol-2-yl)-5-(1-(cyclopropylsulfonyl)-1,2,3,6-tetrahydropyridin-4-yl)pyrazin-2-amine], which Ki is on record?
Answer: The Ki was < 100 nM.

Question: How did the Ki turn out when Cn1cnc(S(=O)(=O)N2CC=C(c3cnc(N)c(-c4nc5ccccc5[nH]4)n3)CC2)c1 [Compound I-94, 3-(1H-benzo[d]imidazol-2-yl)-5-(1-(1-methyl-1H-imidazol-4-ylsulfonyl)-1,2,3,6-tetrahydropyridin-4-yl)pyrazin-2-amine] was run?
Answer: The Ki was < 100 nM.

Question: For CCCS(=O)(=O)N1CCN(c2cnc(N)c(-c3nc4ccccc4[nH]3)n2)CC1 [Compound I-95, 3-(1H-benzo[d]imidazol-2-yl)-5-(4-(propylsulfonyl)piperazin-1-yl)pyrazin-2-amine], which Ki is on record?
Answer: Its Ki is 100 to 1000 nM.
